Like-named read-outs stand apart in the source and are kept apart here. Where only a bound is given, the exact number is not on record here.

Assay [1] relates to p-IKKα levels in L363 (NIK translocated multiple myeloma) cells. Put plainly: Effect of compounds on p-IKKα levels in L363 cells (AlphaLISA SureFire Ultra). In kind it is cell-based, human. The conditions noted are these: Homo sapiens, 10 μM MG132, 6 h, average of values obtained, read-out: Assay 2 IC50. On the procedure:
Effect of Compounds on p-IKKα Levels in L363 (NIK Translocated Multiple Myeloma) Cells
All compounds tested were dissolved and serially diluted in DMSO, 1:3 dilution for 11 points in an Echo compatible plate. 100% DMSO was added to columns 12 and 24 of the plate to serve as high and low signal controls. This compound plate was used to spot 20 nL of compound or DMSO into a Greiner 384 well TC plate (781080). The final DMSO concentration was 0.3% (v/v) in cell assays. Human L363 cells (ATCC) were cultured in RPMI1640 medium supplemented with GlutaMax, non-essential amino acids, sodium pyruvate and 10% fetal bovine serum. Cells were routinely maintained at densities of […]-2×10^6 cells per mL at 37° C. in a humidified 5% CO2 atmosphere incubator. Cells were passaged twice a week splitting back to obtain the low density. The day before the assay, cells were washed twice in HBSS (Hank's Balanced Salt Solution), resuspended in Dulbecco's Modified Eagle Medium (DMEM)+0.5% IgG and protease free BSA (Jackson Immuno Research Laboratories), +/−250 ng/ml recombinant human B-cell activating factor (BAFF/BLyS/TNFSF13B) and incubated overnight at 37° C. in a humidified 5% CO2 atmosphere (bulk stimulation with or without BAFF). The next day, the cell concentration was adjusted to 1×10^7 cells/ml in DMEM+/−250 ng/ml BAFF+/10 μM MG132 and plated at […] into compound or DMSO spotted 384 well TC plates. Seeded cells were incubated at 37° C. in a humidified 5% CO2 atmosphere for 6 h. After 6 h, the plates were removed from the incubator and cell lysis was achieved by the addition of 2.5 μl 5×lysis buffer containing protease and phosphatase inhibitors, followed by shaking on a plate shaker at room temperature for 15 min. At the end of this incubation, lysed cells were sequentially treated and incubated with acceptor and donor bead mixes according to the manufacturer's protocol for a 1 plate/2-incubation suspension cell assay (AlphaLISA SureFire Ultra p-IKKa (Ser 176/180) Assay Kit (Perkin Elmer). Plates were read using an EnVision Multilabel Plate Reader (Perkin Elmer). Within an experiment, a concentration response curve for each compound was run in duplicate. The signal obtained in the test wells was normalized using high signal (BAFF stimulated cells, DMSO, MG132) and low signal (unstimulated cells, DMSO) controls. To determine the IC50, a sigmoidal curve was fitted to the plot of % inhibition versus Log10 compound concentration.
In general terms: Bead proximity is the source of the signal in Alpha formats.

Assay [2] has as its target recombinant human NF-kappaB-inducing kinase (NIK/MAP3K14) (Homo sapiens, UniProt Q99558). Nature of the assay: Inhibition of auto-phosphorylation of recombinant human NIK/MAP3K14 activity (AlphaScreen). In kind it is biochemical. The conditions noted are these: GST-tagged NIK/MAP3K14 1 nM, 5 μM ATP, 2 h at 25° C.; average of values obtained. On the procedure:
Inhibition of Auto-Phosphorylation of Recombinant Human NF-kappaB-Inducing Kinase (NIK/MAP3K14) Activity (AlphaScreen®)
NIK/MAP3K14 auto-phosphorylation activity was measured using the AlphaScreen® (αscreen) format (Perkin Elmer). All compounds tested were dissolved in dimethyl sulfoxide (DMSO) and further dilutions were made in assay buffer. The final DMSO concentration was 0.7% (v/v) in assays. The assay buffer was 50 mM Tris pH 7.5 containing 1 mM EGTA (ethylene glycol tetraacetic acid), 1 mM DTT (dithiothreitol), 0.1 mM Na3VO4, 5 mM MgCl2, and 0.01% Tween® 20. The assays were carried out in 384 well Proxiplates (Perkin Elmer). The incubations consisted of the compound, 5 μM Adenosine-5′-triphosphate (ATP), and 1 nM NIK/MAP3K14. Incubations were initiated by the addition of GST-tagged NIK/MAP3K14 enzyme, carried out for 2 h at 25° C. and terminated by addition of stop buffer containing anti-phospho-IKK Ser176/180 antibody. Protein A Acceptor and Glutathione-Donor beads were added before reading using an EnVision Multilabel Plate Reader (Perkin Elmer). The signal obtained in the wells was normalized using high (full enzyme activity, 0.7% DMSO) and low controls (no enzyme activity, 0.7% DMSO, no ATP). IC50's were determined by fitting a sigmoidal curve to % inhibition of control versus Log10 compound concentration.

The mark [3] stands for this setting: L-363, 250 ng/ml BAFF stimulated.
Where [4] appears, read: L-363, 6 h, 250 ng/ml BAFF stimulated.

Sequence of recombinant human NF-kappaB-inducing kinase (NIK/MAP3K14) (Q99558 whole entry): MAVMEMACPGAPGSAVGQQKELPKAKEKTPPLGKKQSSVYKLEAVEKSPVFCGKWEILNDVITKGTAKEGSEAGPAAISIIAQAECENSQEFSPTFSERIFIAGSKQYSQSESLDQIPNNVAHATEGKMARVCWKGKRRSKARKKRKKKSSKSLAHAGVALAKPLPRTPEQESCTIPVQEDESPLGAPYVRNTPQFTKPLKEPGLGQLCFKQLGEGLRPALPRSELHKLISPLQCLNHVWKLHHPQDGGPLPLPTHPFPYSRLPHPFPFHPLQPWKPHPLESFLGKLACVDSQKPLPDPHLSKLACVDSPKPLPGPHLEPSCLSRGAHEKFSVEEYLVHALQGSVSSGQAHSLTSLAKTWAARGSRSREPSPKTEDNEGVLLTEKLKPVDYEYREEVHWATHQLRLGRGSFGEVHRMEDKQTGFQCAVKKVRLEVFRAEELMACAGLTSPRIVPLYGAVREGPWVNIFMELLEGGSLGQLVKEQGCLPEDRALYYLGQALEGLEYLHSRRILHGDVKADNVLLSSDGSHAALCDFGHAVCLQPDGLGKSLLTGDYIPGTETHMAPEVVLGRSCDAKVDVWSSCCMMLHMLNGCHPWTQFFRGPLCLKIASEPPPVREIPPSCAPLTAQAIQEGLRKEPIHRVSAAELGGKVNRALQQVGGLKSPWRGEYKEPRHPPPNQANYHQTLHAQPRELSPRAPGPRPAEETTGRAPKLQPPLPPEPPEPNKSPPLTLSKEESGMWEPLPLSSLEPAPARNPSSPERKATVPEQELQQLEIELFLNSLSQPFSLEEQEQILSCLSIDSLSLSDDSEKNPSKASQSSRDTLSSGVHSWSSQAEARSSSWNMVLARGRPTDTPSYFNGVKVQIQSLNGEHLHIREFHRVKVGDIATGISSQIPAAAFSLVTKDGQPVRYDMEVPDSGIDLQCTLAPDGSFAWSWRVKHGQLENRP

As to `CN1CC[C@@](O)(c2cccc(-c3nc(-c4cccc5[nH]ncc45)cs3)c2)C1=O` [Example 131, (R)-3-(3-(4-(1H-Indazol-4-yl)thiazol-2-yl)phenyl)-3-hydroxy-1-methylpyrrolidin-2-one], the IC50 in assay [1] (setting [3]) and in assay [2] was over 500 nM in each case.
For the compound `Cc1ccnc2[nH]cc(-c3nc(-c4cccc([C@]5(O)CCn6ccnc65)c4)cs3)c12` [Example 87, (R)-7-(3-(2-(4-Methyl-1H-pyrrolo[2,3-b]pyridin-3-yl)thiazol-4-yl)phenyl)-6,7-dihydro-5H-pyrrolo[1,2-a]imidazol-7-ol], the IC50 (commonly the concentration needed to halve the response being measured) was over 500 nM in assay [1] (setting [4]) and at most 100 nM in assay [2].
Consider `CN1CC[C@@](O)(c2cccc(-c3nc(-c4c(F)cnc5[nH]ccc45)cs3)c2)C1=O` [Example 132, (R)-3-(3-(4-(5-Fluoro-1H-pyrrolo[2,3-b]pyridin-4-yl)thiazol-2-yl)phenyl)-3-hydroxy-1-methylpyrrolidin-2-one], for which the IC50 in assay [1] (setting [3]) and in assay [2] was over 500 nM each time.
Consider `Cc1noc2c1CC[C@@]2(O)c1cccc(-c2csc(-c3c[nH]c4ncccc34)n2)c1` (single isomer, unassigned) [Example 126], for which the IC50 in assay [1] (setting [4]) is over 500 nM; in assay [2] it was at most 100 nM.
On to `Cc1ccc([C@]2(O)CCN(C)C2=O)cc1-c1csc(-c2c[nH]c3nccnc23)n1` [Example 67, (R)-3-(3-(2-(5H-Pyrrolo[2,3-b]pyrazin-7-yl)thiazol-4-yl)-4-methylphenyl)-3-hydroxy-1-methylpyrrolidin-2-one], for which the 50% inhibitory concentration (IC50) in assay [1] (setting [3]) was over 500 nM; in assay [2] it was at most 100 nM.
Turning to `CN1CC[C@@](O)(c2cccc(-c3csc(-c4n[nH]c5ncccc45)n3)c2)C1=O` [Example 100, (R)-3-(3-(2-(1H-Pyrazolo[3,4-b]pyridin-3-yl)thiazol-4-yl)phenyl)-3-hydroxy-1-methylpyrrolidin-2-one], the IC50 in assay [1] (setting [3]) and in assay [2] was over 500 nM in each case.
For the compound `CN1CC[C@@](O)(c2cccc(-c3nc(-c4c(Cl)cnc5[nH]ccc45)cs3)c2)C1=O` [Example 130, (R)-3-(3-(4-(5-Chloro-1H-pyrrolo[2,3-b]pyridin-4-yl)thiazol-2-yl)phenyl)-3-hydroxy-1-methylpyrrolidin-2-one], the IC50 in assay [1] (setting [3]) and in assay [2] was over 500 nM in each case.
Take `CN1C[C@@](O)(c2cccc(-c3csc(-c4c[nH]c5nccnc45)n3)c2)C1=O` [Example 45, (S)-3-(3-(2-(5H-Pyrrolo[2,3-b]pyrazin-7-yl)thiazol-4-yl)phenyl)-3-hydroxy-1-methylazetidin-2-one]: the concentration for half-maximal inhibition (IC50) in assay [1] (setting [3]) and in assay [2] was over 500 nM in each case.
Consider `CC1(C)Cc2cccnc2[C@]1(O)c1cccc(-c2csc(-c3c[nH]c4ncccc34)n2)c1` (single isomer, unassigned) [Example 36], for which the IC50 was over 500 nM in assay [1] (setting [4]) and at most 100 nM in assay [2].
With `Cc1sc(-c2c[nH]c3nccnc23)nc1-c1cccc([C@]2(O)CCN(C)C2=O)c1` [Example 66, (R)-3-Hydroxy-1-methyl-3-(3-(5-methyl-2-(5H-pyrrolo[2,3-b]pyrazin-7-yl)thiazol-4-yl)phenyl)pyrrolidin-2-one], the half-maximal inhibitory concentration (IC50) in assay [1] (setting [3]) is over 500 nM; in assay [2], at most 100 nM.
Consider `CN1CC[C@](O)(c2cccc(-c3cnc(-c4c[nH]c5ncccc45)s3)c2)C1=O` (single isomer, unassigned) [Example 4], for which the IC50 in assay [1] (setting [3]) and in assay [2] was over 500 nM in each case.
With `CC1(C)Cc2cccnc2[C@@]1(O)c1cccc(-c2csc(-c3c[nH]c4ncccc34)n2)c1` (single isomer, unassigned) [Example 35], the IC50 in assay [1] (setting [4]) and in assay [2] was over 500 nM each time.
For the compound `O[C@]1(c2cccc(-c3nc(-c4c[nH]c5ncccc45)cs3)c2)CCn2ccnc21` [Example 84, (S)-7-(3-(4-(1H-Pyrrolo[2,3-b]pyridin-3-yl)thiazol-2-yl)phenyl)-6,7-dihydro-5H-pyrrolo[1,2-a]imidazol-7-ol], the IC50 in assay [1] (setting [4]) is over 500 nM; in assay [2] it was 100 to 500 nM.
For `CN1CC[C@@](O)(c2cccc(-c3csc(-c4c[nH]c5ncc(Cl)c(F)c45)n3)c2)C1=O` [Example 95, (R)-3-(3-(2-(5-Chloro-4-fluoro-1H-pyrrolo[2,3-b]pyridin-3-yl)thiazol-4-yl)phenyl)-3-hydroxy-1-methylpyrrolidin-2-one], the IC50 in assay [1] (setting [3]) is over 500 nM; in assay [2] it was at most 100 nM.
Turning to `CN1CC[C@@](O)(c2cccc(-c3nc(-c4cc(N)nc5[nH]ccc45)cs3)c2)C1=O` [Example 129, (R)-3-(3-(4-(6-Amino-1H-pyrrolo[2,3-b]pyridin-4-yl)thiazol-2-yl)phenyl)-3-hydroxy-1-methylpyrrolidin-2-one], the IC50 in assay [1] (setting [3]) and in assay [2] was over 500 nM each time.
Consider `O[C@@]1(c2cccc(-c3csc(-c4c[nH]c5ncccc45)n3)c2)C=Cc2cccnc21` (single isomer, unassigned) [Example 33], for which the IC50 in assay [1] (setting [4]) was over 500 nM; in assay [2], at most 100 nM.
As to `O[C@@H]1C[C@](O)(c2cccc(-c3csc(-c4c[nH]c5ncccc45)n3)c2)c2ncccc21` (single isomer, unassigned) [Example 104], the IC50 in assay [1] (setting [4]) and in assay [2] was over 500 nM in each case.
Turning to `CN1CC[C@](O)(c2cccc(-c3csc(-c4c[nH]c5ncncc45)n3)c2)C1=O` (single isomer, unassigned) [Example 52], the results for the IC50 in assay [1] (setting [3]) and in assay [2] were over 500 nM and 100 to 500 nM, respectively.
Taken in the same sequence, the figures for `CN1CC[C@@](O)(c2cccc(-c3ccc(-c4c[nH]c5ncccc45)o3)c2)C1=O` [Example 114, (R)-3-(3-(5-(1H-Pyrrolo[2,3-b]pyridin-3-yl)furan-2-yl)phenyl)-3-hydroxy-1-methylpyrrolidin-2-one] were 100 to 500 nM and at most 100 nM.
For the compound `O[C@@]1(c2cccc(-c3coc(-c4c[nH]c5ncccc45)c3)c2)CCn2ccnc21` [Example 30, (R)-7-(3-(5-(1H-Pyrrolo[2,3-b]pyridin-3-yl)furan-3-yl)phenyl)-6,7-dihydro-5H-pyrrolo[1,2-a]imidazol-7-ol], the IC50 was over 500 nM in assay [1] (setting [4]) and at most 100 nM in assay [2].
Regarding `O[C@@]1(c2cccc(-c3csc(-c4c[nH]c5ncc(F)cc45)n3)c2)CCn2ccnc21` [Example 24, (R)-7-(3-(2-(5-Fluoro-1H-pyrrolo[2,3-b]pyridin-3-yl)thiazol-4-yl)phenyl)-6,7-dihydro-5H-pyrrolo[1,2-a]imidazol-7-ol], the IC50 in assay [1] (setting [4]) and in assay [2] was at most 100 nM each time.
With `O[C@]1(c2cccc(-c3csc(-c4c[nH]c5ncccc45)n3)c2)CCc2scnc21` (single isomer, unassigned) [Example 31], the IC50 in assay [1] (setting [4]) was over 500 nM; in assay [2] it was 100 to 500 nM.
Turning to `Cc1ccc(-c2csc(-c3c[nH]c4nccnc34)n2)cc1[C@@]1(O)CCN(C)C1=O` [Example 70, (S)-3-(5-(2-(5H-Pyrrolo[2,3-b]pyrazin-7-yl)thiazol-4-yl)-2-methylphenyl)-3-hydroxy-1-methylpyrrolidin-2-one], the IC50 in assay [1] (setting [3]) and in assay [2] was over 500 nM each time.
